Measured values: ChEMBL document CHEMBL3751779, “Amides of non-steroidal anti-inflammatory drugs with thiomorpholine can yield hypolipidemic agents with improved anti-inflammatory activity” (Bioorg Med Chem Lett, 2016)

Assays:
Assay type in all cases: functional
[1] = system: Rattus norvegicus; experiment: Antihyperlipidemic activity in rat assessed as reduction of tyloxapol-induced plasma total cholesterol level at 150 umol/kg, ip after 24 hrs relative to control
[2] = system: Rattus norvegicus; experiment: Antihyperlipidemic activity in rat assessed as reduction of tyloxapol-induced plasma triglyceride level at 150 umol/kg, ip after 24 hrs relative to control
[3] = system: Rattus norvegicus; experiment: Antihyperlipidemic activity in rat assessed as reduction of tyloxapol-induced plasma low density lipoprotein cholesterol level at 150 umol/kg, ip after 24 hrs relative to control
[4] = system: Rattus norvegicus; experiment: Anti-inflammatory activity in rat assessed as reduction of carrageenan-induced paw edema at 150 umol/kg, ip after 3.5 hrs relative to control

Compound | inhibition in vivo at 150 µmol/kg [1] [%] | inhibition in vivo at 150 µmol/kg [2] [%] | inhibition in vivo at 150 µmol/kg [3] [%] | inhibition in vivo at 150 µmol/kg [4] [%]
CC(C(=O)N1CCSCC1)c1cccc(C(=O)c2ccccc2)c1 (stereo unspecified) | 49 | 43 | 64.9 | 60
O=C(Cc1ccccc1Nc1c(Cl)cccc1Cl)N1CCSCC1 | 44.1 | 46.4 | 70.8 | 40
O=C(c1ccccc1Nc1cccc(C(F)(F)F)c1)N1CCSCC1 | 52.8 | 54.1 | 64.2 | 44
O=C(CCCCC1CCSS1)N1CCSCC1 (stereo unspecified) |  |  |  | 59
Cc1c(Cl)cccc1Nc1ccccc1C(=O)N1CCSCC1 | 65.9 | 80 | 70.5 | 45
CC(C)Cc1ccc(C(C)C(=O)N2CCSCC2)cc1 (stereo unspecified) | 60.3 | 64.2 | 57.6 | 41
COc1ccc2cc(C(C)C(=O)N3CCSCC3)ccc2c1 (stereo unspecified) | 57.8 | 61.3 | 81.4 | 62
O=C(Cc1c[nH]c2ccccc12)N1CCSCC1 |  |  |  | 29
Cc1cccc(Nc2ccccc2C(=O)N2CCSCC2)c1C | 80.5 | 81.5 | 71.3 | 46
COc1ccc2c(c1)c(CC(=O)N1CCSCC1)c(C)n2C(=O)c1ccc(Cl)cc1 | 73 | 79.5 | 83 | 38
O=C(O)Cc1ccccc1Nc1c(Cl)cccc1Cl [DICLOFENAC] |  |  |  | 37
O=C(O)c1ccccc1Nc1cccc(C(F)(F)F)c1 [FLUFENAMIC ACID] |  |  |  | 19
CC(C)Cc1ccc(C(C)C(=O)O)cc1 (stereo unspecified) [IBUPROFEN] |  |  |  | 36
COc1ccc2c(c1)c(CC(=O)O)c(C)n2C(=O)c1ccc(Cl)cc1 [INDOMETHACIN] |  |  |  | 42
Cc1cccc(Nc2ccccc2C(=O)O)c1C [MEFENAMIC ACID] |  |  |  | 44
COc1ccc2cc([C@H](C)C(=O)O)ccc2c1 [NAPROXEN] |  |  |  | 11
Cc1c(Cl)cccc1Nc1ccccc1C(=O)O [TOLFENAMIC ACID] |  |  |  | 24
